Data as given in patent US10363261B2, “Enolase inhibitors and methods of treatment therewith” (Board of Regents, The University of Texas System, priority 2015, dated 2019).

What was measured:
[1] = biological target: enolase (ENO1 and ENO2); assay: Enolase inhibitory activity in vitro, isoform not distinguished (ENO1 and ENO2); type: biochemical, human; conditions: isolated enzymatic assay
Method: Human ENO1 and ENO2 were overexpressed in the human D423 cell line and used for enzymatic assays. Inhibitors (PhAH, SF2312 and Deoxy-SF2312, Hex, Hepta, Pom-Hex, and Fosmidomycin) were incubated with the enzyme prior to addition of 5 mM 2-PG substrate. Enzymatic activity was measured by monitoring fluorescence of NADH at 340 nm Exitation/460 nm emission using an Lactate dehydrogenase/Pyruvate kinase linked assay which links the formation of PEP to the oxidation of NADH to NAD+, as we have described in published work (Muller et al., 2012). Enzymatic activity was normalized to that in the absence of the inhibitor (set to 1) and plotted as function of inhibitor concentration.
Enolase activity was measured using two different methods, either by a fluorometric NADH-linked assay or a direct spectrophotometric assay via formation of PEP. In the fluorescent assay, enolase activity was measured via NADH oxidation in a pyruvate kinase-lactate dehydrogenase coupled assay as previously described (Muller, et al., 2012). The assay is conducted in 10 mM KCl, 5 mM MgSO4, 100 mM triethanolamine at pH 7.4, with 400 μM NADH and 2 mM ADP. 2-Phosphoglycerate (2-PGA), pyruvate kinase (PK) and lactate dehydrogenase (LDH) are provided in excess, with conversion of 2-PGA to PEP by enolase being rate limiting. PEP (with ADP) is substrate of PK; pyruvate formed by this reaction is linked to NADH oxidation by LDH. Enolase activity is determined by measuring oxidation of NADH fluorescently by excitation at 340 nm and emission at 460 nm. The substrate concentration, if not otherwise indicated, was 5 mM 2-PGA. Fluorescence was measured using Omega Fluorescence Plate Reader (BMG Labtech). Alternatively, Enolase activity was measured directly by the appearance of PEP from 2-PGA via absorption at 240 nm (Marangos, et al., 1978). The assay medium was the same, except that all the auxiliary reagents (PK/LDH, NADH, ADP) are omitted. Both assays were conducted in a 96-well plated format with the direct assay performed in UV-transmissible plates.

[2] = tested on: Gli56 ENO1-deleted glioma cells; assay: Cell proliferation by Incucyte, ten days; type: cell-based, human
Method: Cell proliferation of glioma cell lines was assayed either through crystal violet staining or by live-cell confluence measurements with the IncuCyte (Essen BioScience). Growth curves using the IncuCyte were generated by confluence imaging every 4 hours with duplicate replicates with an initial seeding of 1500 cells/well in 96-well plates. At the indicated time point, cells were fixed with 10% formalin and stained with crystal violet. Dye extraction was performed using 10% acetic acid solution, and absorbance was read at 595 nm. Apoptotic cells were counted by staining with YO-PRO®-1 Iodide (491/509, Life Technologies, Y3603). Apoptotic cells become permeable to YO-PRO®-1 while live cells are not stained. Alternatively, Propidium Iodide was employed (Life Technologies) instead of YO-PRO. Total cell number was quantified by Hoechst 33342 (Cat# H3570 Invitrogen). Cells were seeded as 2×10^3 cells/well in 96-well plates and treated in the presence or absence of doxycycline. […] Image capture and quantification was done by High Content Screening System—Operetta (Perkin Elmer). ATP content was measured with the luciferase/luciferin CellTiter-Glo® assay. […] Lysis was achieved by the […] in the buffer and vigorous pipetting, and luminescence was determined using an Omega Luminescence Plate Reader (BMG Labtech). […]

[3] = tested on: ATP levels in D423 ENO1-deleted glioma cells; assay: ATP content (CellTiter-Glo); type: cell-based, human; conditions: 8 hours of treatment
Method: Cell proliferation of glioma cell lines was assayed either through crystal violet staining or by live-cell confluence measurements with the IncuCyte (Essen BioScience). Growth curves using the IncuCyte were generated by confluence imaging every 4 hours with duplicate replicates with an initial seeding of 1500 cells/well in 96-well plates. At the indicated time point, cells were fixed with 10% formalin and stained with crystal violet. Dye extraction was performed using 10% acetic acid solution, and absorbance was read at 595 nm. Apoptotic cells were counted by staining with YO-PRO®-1 Iodide (491/509, Life Technologies, Y3603). Apoptotic cells become permeable to YO-PRO®-1 while live cells are not stained. Alternatively, Propidium Iodide was employed (Life Technologies) instead of YO-PRO. Total cell number was quantified by Hoechst 33342 (Cat# H3570 Invitrogen). Cells were seeded as 2×10^3 cells/well in 96-well plates and treated in the presence or absence of doxycycline. On the day of apoptosis survey, old media was removed and each well was filled to 100 μl with fresh media. Hoechst and YO-PRO®-1 were mixed in 1:100 PBS and 10 μl of the mixture was added in each well gently without touching the cells for a final dilution of 1:1000 from stock. Plates were then incubated at 37° C. for 2 hours. Image capture and quantification was done by High Content Screening System—Operetta (Perkin Elmer). ATP content was measured with the luciferase/luciferin CellTiter-Glo® assay. Briefly, 100 μl of CellTiter-Glo® assay media was added to 96-well plates containing 100 μl of media and cells. Lysis was achieved by the […] in the buffer and vigorous pipetting, and luminescence was determined using an Omega Luminescence Plate Reader (BMG Labtech). Results were expressed relative to vehicle treated control.

## O=C1C(P(=O)(O)O)CC(O)N1O (racemic) [SF2312, 3-dihydroxyphosphoryl-1,5-dihydroxy-2-pyrrolidone]
[1]
  IC50 lower than that of PhAH: about 50%
[2]
  fold more potent at inhibiting proliferation of Gli56 ENO1-deleted cells compared to ENO1-intact glioma lines: ≤ 128 fold
[3]
  concentration reducing ATP levels by >40%: 12.5 µM
  fold more potent than PhAH at decreasing ATP levels: ~8 fold
